Settings: for log10 BCF / log10 biotransformation half-life (days): fish

Compound	melting point [°C]	boiling point [°C]	log10 vapour pressure (mmHg)	further results
CC1=NOC(=O)/C1=N\Nc1ccccc1Cl	168	–	–	–
C=CCSSCC=C	–	188	–	–
CS(=O)(=O)c1ccc(C(=O)O)cc1	270	–	–	–
CCC1c2ccccc2-c2ccccc21	–	–	–	log10 biodegradation half-life (days): 1.46
CC(C)CS	–	88.5	1.84	–
COc1cccc(C=O)c1	–	231	–	ready biodegradability: readily biodegradable
BrCCCCBr	-16.5	197	-0.211	–
CCCCCCCCCCCCC(=O)O	44.5	312	-4.9	–
CCCNCCC	-63	109	1.3	log10 Henry constant (atm·m³/mol): -4.29; log10 Koa: 3.59; ready biodegradability: readily biodegradable
CC(=O)OC/C=C(\C)CCC=C(C)C	–	238	-1.48	–
CC#CCCC	-89.6	84.5	–	–
OCCN(CCO)c1nc(N2CCCCC2)c2nc(N(CCO)CCO)ncc2n1	158	–	–	–
COC(=O)CCCCC(=O)OC	10.3	–	-1.22	–
CCCCCCCCCCCCCC1CCCCC1	18.5	346	-5.04	–
CCC[N+](=O)[O-]	-108	131	1	log10 Henry constant (atm·m³/mol): -4.06; log10 Koa: 3.25
Cc1nc2ccccc2s1	14	238	-1.52	–
O=C(CO)[C@@H](O[C@H]1O[C@H](CO)[C@@H](O)[C@H](O)[C@H]1O)[C@H](O)[C@H](O)CO	168	–	–	–
CC(=O)c1ccccc1	20	202	-0.401	log10 Henry constant (atm·m³/mol): -4.98; log10 Koc (L/kg): 1.8; ready biodegradability: readily biodegradable
COC(=O)[C@]1(C)CCC[C@@]2(C)[C@H]1CC=C1C=C(C(C)C)CC[C@@H]12	–	362	–	–
Nc1ccccc1N	102	257	-2.69	ready biodegradability: not readily biodegradable
Nc1cc([N+](=O)[O-])cc([N+](=O)[O-])c1	163	–	–	log10 Koc (L/kg): 2.55
O=C(Cl)C(Cl)=C(Cl)Cl	–	158	–	–
CCC(CC)CC	-119	93.5	1.76	log10 biodegradation half-life (days): 0.602
C1CC2CCCC(C1)C2	146	170	–	–
COc1ccc2c(c1)CCCC2=O	78	–	–	–

Compound	melting point [°C]	boiling point [°C]	log10 vapour pressure (mmHg)	further results
NS(=O)(=O)c1cccc([N+](=O)[O-])c1	167	–	–	–
CCCCCCC(O)CCCCCCCCCCC(=O)O (configuration not stated)	–	–	–	ready biodegradability: readily biodegradable
CCc1cc(CC)c(CC)c(CC)c1CC	–	277	–	–
COc1ccc(C(=O)O)c(OC)c1OC	100	–	–	–
OCC(O)CO	18.2	290	-3.77	log10 Henry constant (atm·m³/mol): -7.76; ready biodegradability: readily biodegradable
N=C(N)c1ccc(N)cc1	182	–	–	–
CCC(CC)CC(C)C	–	134	–	–
Cc1cc(O)c2c(c1)C(=O)c1cccc(O)c1C2=O	196	–	–	–
CCCN(CCC)C(=O)SCc1ccccc1	–	–	-6.29	–
CS(=O)(=O)OCCCNCCCOS(C)(=O)=O	116	–	–	–
CCC(=O)OC	-87.5	79.8	1.92	log10 Henry constant (atm·m³/mol): -3.76
CC(C)(COCc1cccc(Oc2ccccc2)c1)c1ccc(OC(F)(F)Br)cc1	–	–	-8.23	–
O=C(O)c1cccc2cccnc12	187	–	–	–
C=CCC(=O)O	-35	169	–	–
Cc1ccccc1NCc1ccccc1	60	302	–	–
C#CC(C)(O)c1ccccc1 (configuration not stated)	52.3	218	–	–
FC(Cl)CCl (configuration not stated)	-60	73.7	–	–
C=C(C)[C@@H]1CC=C(C)C(=O)C1	–	–	-0.988	–
CCCCCCCC(=O)Oc1c(Br)cc(C#N)cc1Br	45.5	–	-5.32	log10 Koc (L/kg): 4; ready biodegradability: readily biodegradable
CCOP(=S)(OCC)Oc1cnc2ccccc2n1	31.5	–	-5.58	–
O=C1C=CC(=O)c2c(Cl)cccc21	163	–	–	–
CCC(C)OC (configuration not stated)	-100	65	2.32	–
CCCCCCCCCCCCC=O	14	–	–	–
N=C(N)NOCC[C@H](N)C(=O)O	184	–	–	–
CC1=C(C)C(=O)C(C)=C(C)C1=O	112	–	–	–

Compound	melting point [°C]	boiling point [°C]	log10 vapour pressure (mmHg)	further results
Cc1c(C)c(C)c(O)c(C)c1C	128	267	–	–
c1ccc(-c2c3ccccc3c(-c3ccccc3)c3ccccc23)cc1	246	–	-9.84	–
CC(C)(C)CC(=O)OCC(=O)[C@@]1(O)CC[C@H]2[C@@H]3CCC4=CC(=O)CC[C@]4(C)[C@H]3[C@@H](O)C[C@@]21C	168	–	–	–
Oc1cc(O)cc(Cl)c1	118	–	–	–
Nc1c(Cl)c(F)nc(OCC(=O)O)c1Cl	232	–	-10.5	–
CCCCCCCCCCCC=O	44.5	–	-1.82	–
CC(CCC(=O)O)c1ccccc1 (configuration not stated)	13	–	–	–
CC(=O)c1ccc(C)cc1	28	226	–	ready biodegradability: readily biodegradable
COc1ccc2c(c1)c(CC(=O)O)c(C)n2C(=O)/C=C/c1ccccc1	170	–	–	–
NS(=O)(=O)c1ccc(S(=O)(=O)CCCO)cc1	150	–	–	–
CCCCCCCCOCCCCCCCC	-7.6	283	–	ready biodegradability: readily biodegradable
FC(F)=CCl	-138	-18.5	3.55	–
CNC(N)=S	120	–	–	–
C#CC1(OC(N)=O)CCCCC1	96	–	–	ready biodegradability: readily biodegradable
Cc1c(Br)c(Br)c(Br)c(Br)c1Br	288	–	–	ready biodegradability: not readily biodegradable; log10 BCF: 2.43; log10 biotransformation half-life (days): -0.13
O=C=Nc1cccc2ccccc12	–	269	–	–
CC(C)CCc1ccccc1	–	195	–	–
C=CCOC(C)=O	–	104	1.43	–
C/C=C/CCC	-98	66.5	–	–
Clc1cc(Cl)c(Cl)c(-c2cc(Cl)cc(Cl)c2Cl)c1	–	–	–	log10 Koc (L/kg): 6.48
C=C(C)COC	–	68	–	–
Oc1ccc(Cl)cc1	42.7	220	-1.05	ready biodegradability: not readily biodegradable; log10 BCF: 1.48; log10 biotransformation half-life (days): -0.41
O=C1C=CC(=O)O1	52.8	202	-0.602	ready biodegradability: readily biodegradable
COC(=O)C1(S(=O)(=O)c2ccc([N+](=O)[O-])cc2)CC1	127	–	–	–
CCN1CCCC1	–	104	–	–

Compound	melting point [°C]	boiling point [°C]	log10 vapour pressure (mmHg)	further results
CCCCCC(=O)Cl	-87	153	–	–
CC(C(=O)[O-])c1ccccc1 (configuration not stated)	–	261	–	–
O=[N+]([O-])c1cccc([N+](=O)[O-])c1Cl	88	315	–	–
COC(=O)[C@H](Cc1ccccc1)NC(=O)[C@@H](N)CC(=O)O	246	–	–	–
CCc1cc2c(s1)N(C)C(=O)CN=C2c1ccccc1Cl	119	–	–	–
CC(CCO)CC(F)(F)F (configuration not stated)	–	159	–	–
CC(C)NCC(O)COc1cccc2ccccc12.Cl (configuration not stated)	164	–	–	–
O=c1oc2ccccc2c(O)c1C1CC(c2ccc(-c3ccc(Br)cc3)cc2)Cc2ccccc21 (configuration not stated)	230	–	–	–
Brc1ccc(Oc2ccccc2)c(Br)c1	–	–	–	log10 Koa: 8.37
COc1cc(C[C@H]2c3cc(OC)c(OC)cc3CCN2C)c(Oc2cc3c(cc2OC)-c2c(OC)c(OC)cc4c2[C@H](C3)N(C)CC4)cc1OC	160	–	–	–
Cc1ccc(CO)c(C)c1	22	232	–	–
C/C=C(/C)c1ccccc1	–	195	–	–
CC1CN1 (configuration not stated)	-65	67	2.15	–
COc1cccc(OC)c1C(C)=O	69	–	–	–
CCCCCCCCCCCCCCCCCCBr	28.2	–	-5.23	–
O=C(Nc1cccc2ccccc12)c1ccccc1C(=O)[O][Na]	–	–	–	log10 Koc (L/kg): 3.34
Cc1cc(O)c(C)c(C)c1C	85.3	266	–	–
CCC(C)C#N (configuration not stated)	–	125	–	–
N#CO	-86	–	2.91	–
Brc1ccccn1	–	195	-0.114	–
O=[N+]([O-])c1cccc(O)c1	96.8	–	–	log10 Henry constant (atm·m³/mol): -8.7; ready biodegradability: readily biodegradable; log10 BCF: 1.4; log10 biotransformation half-life (days): -0.49
C=CCCCC(=O)O	-37	203	–	–
NC(=O)c1ccccc1N	–	300	–	–
O=C(O)CCC(=O)c1ccc2c(c1)-c1cccc3cccc-2c13	208	–	–	–
Cc1ccc(C)c(C(C)c2ccccc2)c1 (configuration not stated)	–	–	–	ready biodegradability: not readily biodegradable; log10 BCF: 2.86; log10 biotransformation half-life (days): 0.1

Compound	melting point [°C]	boiling point [°C]	log10 vapour pressure (mmHg)	further results
Clc1cc(Cl)c2oc3c(Cl)c(Cl)c(Cl)cc3c2c1	219	–	-8.73	–
CCCCOC(=O)COC(=O)c1ccccc1C(=O)OCCCC	–	–	–	log10 Koc (L/kg): 3.7; ready biodegradability: readily biodegradable
c1ccc(SSc2ccccc2)cc1	62	310	-3.66	–
N#Cc1ccc2c(c1)N(CCCN1CCC(O)CC1)c1ccccc1S2	116	–	–	–
Clc1cc2c(Cl)c(Cl)c(Cl)cc2c(Cl)c1Cl	–	–	-6.46	log10 Koa: 9.58
CC#CCC(C)C	-92.9	102	–	–
FCCCF	–	41.6	–	–
ClCOCCl	-41.5	106	1.47	–
CCCC(C)C(C)(C)O (configuration not stated)	–	160	–	–
Brc1ccc2c(c1)Oc1ccc(Br)cc1O2	193	–	-5.95	–
COP(N)(=O)SC (configuration not stated)	46	–	-4.45	log10 Koc (L/kg): 0.7
C=CCOC(=O)c1ccccc1C(=O)OCC=C	–	–	–	ready biodegradability: readily biodegradable
CC1(C)[C@H](C=C(Cl)Cl)[C@H]1C(=O)OCc1c(F)c(F)cc(F)c1F	32	–	-5.52	–
CC(=O)Oc1ccc(C(c2ccc(OC(C)=O)cc2)c2ccccn2)cc1	134	–	–	–
NNC(=O)Nc1ccccc1	128	–	–	–
C/C=C/C#N	-51.5	–	–	–
Cn1c(=O)c2c(ncn2CCO)n(C)c1=O	158	–	–	–
CC1CCSC1 (configuration not stated)	–	139	–	–
Cl/C=C/Cl	–	–	–	ready biodegradability: not readily biodegradable
CS(=O)(=O)c1ccc([C@@H](O)[C@@H](CO)NC(=O)C(Cl)Cl)cc1	165	–	–	–
COC(=O)CCCCCCCCCCC(=O)OC	31.9	–	–	–
CCCCCC(C)CCCC(C)C (configuration not stated)	–	–	–	log10 biotransformation half-life (days): 1.02
Oc1ccc([C@H]2COc3cc(O)ccc3C2)cc1	190	–	–	–
